# “And” between values parts separate entries of the source, which are not always exact repeats. Equal values may be shown once. The source made the active and inactive calls. The rule behind the calls is not given here.
# Tested on: not listed separately
# Test: HIV Env cell-cell fusion inhibitors, dose response, HIV entry, plate reader, dry powder (AID 687023)
# Settings: Env-mediated cell-cell fusion, plate reader; at 1.2 µM (top of the series)
row,SMILES,"activity change, negative = inhibition"
1,Oc1ccc(CNc2ccccc2F)c2cccnc12,33.1% (inactive)
2,Cc1noc(C)c1S(=O)(=O)Nc1cccc2c1O[C@H](CN(C)Cc1ccc(C(F)(F)F)cc1)[C@@H](C)CN([C@H](C)CO)C2=O,53.5% (inactive)
3,Cc1ccc(-c2nnc3ccc4c(C(F)(F)F)cc(C(F)(F)F)nc4n23)cc1,38.4% (inactive)

# Same assay, conditions: Env-mediated cell-cell fusion, plate reader; at 3.8 µM (top of the series)
row,SMILES,"activity change, negative = inhibition"
1,CCOc1ccc(OCC)c(S(=O)(=O)NCc2ccncc2)c1,30.3% (inactive)
2,COC(=O)COc1ccc(S(=O)(=O)NCc2ccncc2)cc1,62.5% (inactive)

# Same assay, conditions: Env-mediated cell-cell fusion, plate reader; at 35 µM (top of the series)
row,SMILES,"activity change, negative = inhibition"
1,Cc1ccc(S(=O)(=O)Nc2cccc3c2O[C@@H](CN(C)Cc2ccc(Cl)c(Cl)c2)[C@@H](C)CN([C@H](C)CO)C3=O)cc1,-87.2% (inactive)
2,Cc1noc(C)c1S(=O)(=O)Nc1cccc2c1O[C@@H](CN(C)Cc1ccc(C(F)(F)F)cc1)[C@H](C)CN([C@@H](C)CO)C2=O,56% (inactive)
3,Cc1noc(C)c1S(=O)(=O)Nc1cccc2c1O[C@@H](CN(C)Cc1ccc(C(F)(F)F)cc1)[C@H](C)CN([C@H](C)CO)C2=O,15.3% (inactive)
4,N=C1Sc2ccccc2C2=NCCCN12,2.5% (inactive)
5,Cc1ccc(C)n1-c1ccc(C(=O)O)c(O)c1,0.014% (inactive)
6,CCOc1ccc(S(=O)(=O)NCc2ccccn2)cc1,34.6% (inactive)
7,COc1ccccc1CCNCc1ccc(OC)c(OCc2ccccc2)c1,-63.1% (inactive)

# Tested on: Env-mediated cell-cell fusion, plate reader
# Test: as above
# Settings: not given
row,SMILES,AC50
1,CCCOc1ccc(S(=O)(=O)NCc2ccncc2)c2ccccc12,0.945 µM and 2.88 µM
2,Nc1nonc1C(=O)NCCNCc1c(OCc2ccccc2F)ccc2ccccc12,9.38 µM and 3.61 µM
3,CC1(C)CC(NC(=O)C(=O)Nc2ccc(Cl)cc2)CC(C)(C)N1,> 70 µM (inactive) and 27.4 µM
4,CCOc1ccc(S(=O)(=O)NC(C)c2ccncc2)cc1 (stereo unspecified),1.16 µM and 2.43 µM
5,CC(C)(C)c1ccc(-c2noc(CCC(=O)NCC3CCCO3)n2)cc1 (stereo unspecified),0.0954 µM and 0.484 µM
6,COc1ccc(CC(=O)Nc2cccc(S(=O)(=O)N3CCCCCC3)c2)cc1OC,3.95 µM and 1.88 µM
7,COc1ccc(-c2nn(C)c(=O)c3ccccc23)cc1NC(=O)Cn1nc(C)c2ccccc2c1=O,4.03 µM and 23.5 µM
8,CCCn1nc(C(=O)Nc2ccc3nc(N4CCOCC4)sc3c2)ccc1=O,4.24 µM and 9.79 µM
9,O=C(CCc1ccc(S(=O)(=O)N2CCOCC2)cc1)Nc1nc(COc2ccccc2)cs1,3.51 µM and 8.07 µM

# From PubChem BioAssay AID687023 (Broad Institute, 2013)
